For one assay, the system named is COX-2. Put plainly: Western blot of COX-2 protein in LPS-stimulated RAW-Blue cells. To be noted: LPS 1 μg/mL, 5, 10, 20 μg/mL, 20 h. Type of assay: cell-based, murine. The procedure:
(§1) Data are derived from three independent experiments and presented as mean±SEM. ^#Compared with control group. *P<0.05, **P<0.01 and ***P<0.001 are compared with LPS-alone group.
(§2) After Raw-Blue cells are treated with LPS and Pd-Ib, whole cell extract is prepared with lysis buffer [1% Triton X-100, 0.1% SDS, 0.5% deoxycholate, 1 mM EDTA, 20 mM Tris (pH 7.4), 150 mM NaCl, 10 mM NaF, 1 mM Na3VO4, 0.1 mM phenylmethylsulfonyl fluoride and one protease inhibitor cocktail tablet (Roche, USA)]. Total protein concentration is measured using a protein assay kit, followed by centrifugation at 13,500 rpm for 15 minutes at 4° C., then 10-25 μg of protein from the supernatants is then separated on 10% sodium dodecylsulphate-polyacrylamide gel (SDS-PAGE) and transferred on to polyvinylidene difluoride membranes. After blocking with 5% skim milk powder in Tris-buffered saline-Tween (TBST; 50 mM Tris, 150 mM NaCl, pH 7.4; 0.01% Tween-20) for 1 hour at room temperature, the membrane is then incubated with primary antibody (1:5,000 dilution) in 5% skim milk in TBST overnight at 4° C. […] The membrane is rewashed (TBST; 3×10 min), and the immune-reactive proteins are detected by enhanced chemiluminescence using X-ray film and ECL reagent. The protein bands are quantified by measuring the relative intensity compared to the control using Image J Software (version 4.1.7, NIH, USA).

A further assay deals with IL-6. The assay can be described thus: ELISA of IL-6 in colon tissue, DSS-induced colitis. Type of assay: in vivo, C57BL/6 mice. To be noted: compared with the DSS treatment group. As to the method: (§3) Colon levels of cytokines are assayed using commercially available ELISA kits. Briefly, colon samples are homogenized in phosphate buffer containing 0.05% Tween-20, 0.1 mM phenylmethylsulfonyl fluoride, 0.1 mM benzethonium chloride, 10 mM EDTA, and 20 IU aprotinin A. The homogenates are centrifuged at 16000 g at 4° C. for 15 min, and the supernatants are collected for the determination of levels of the cytokines, IL-6, IL-4, TNF-α, and IFN-γ, according to the manufacturer's protocols. The amount of protein in each sample is measured by the Bradford method, using bovine serum albumin as a standard. The levels of each cytokine are evaluated in each sample and expressed in […].
(§4) Colitis is induced in all groups except the control group. Pd-Ib and sulfasalazine are administered to mice from day 6 to day 12. On day 13, the mice are sacrificed, Data are expressed as mean±SEM, n=8 (*p<0.05, **p<0.01, ***p<0.001, compared with DSS model group).
In general terms: An ELISA detects its analyte on a solid surface through an enzyme-linked reagent.

A further assay concerns IκB-α. The assay can be described thus: Western blot of IκB-α degradation in LPS-stimulated RAW-Blue cells. Type of assay: cell-based, murine. To be noted: LPS 1 μg/mL, Pd-Ib 5, 10, 20 μg/mL, 20 h; compared to LPS-stimulated macrophage. As to the method:
Data are derived from three independent experiments and presented as mean±SEM. ^#Compared with control group. *P<0.05 is compared with LPS-alone group.
as §2
For orientation: In western blotting, separated proteins are transferred to a membrane and probed.

Another assay deals with NF-κB. The assay can be described thus: Anti-inflammatory bioassay (Quanti-Blue assay), SEAP activity. Type of assay: cell-based, murine. To be noted: Mus musculus, Macrophage; LPS-stimulated macrophages; read-out: IC50, inhibition of SEAP activity. The procedure: RAW-Blue cells (5×10^4) are cultured in 96-well plate for 24 hours, and then treated with LPS (1 μg/mL) alone or together with test samples for 20 hours. Secreted embryonic alkaline phosphatase (SEAP) activity in the conditioned medium is determined using QUANTI-Blue medium following manufacturer's manual. Briefly, 100 μL samples are added to 200 μL of QUANTI-Blue medium and incubated at 37° C. for 15 to 30 minutes. Absorbance is measured at 620 nm using a micro-plate reader (Benchmark plus Bio-Red, CA, USA) and fold change in SEAP activity is calculated accordingly.
Raw-Blue cells are derived from RAW264.7 macrophages. Then the murine macrophage cell line of Raw-Blue cells is cultured in plastic dishes containing DMEM supplemented with 100 U/mL of penicillin, 100 μg/mL of streptomycin and 10% FBS in an incubator (5% CO2) at 37° C. Cells are sub-cultured every 3 days at a dilution of 1:6.
The SEAP activity in the supernatants of LPS-stimulated RAW-Blue cells reflects the activation of NF-κB. The inhibition of the NF-κB activation can associate with mitigation of colon inflammation responses and apoptosis of intestinal epithelial cells in DSS mouse model. Western blotting and immunofluorescence analysis are performed to determine whether Pd-Ib depressed NF-κB activation. […]

In another assay the test system is TNF-α. Put plainly: ELISA of TNF-α in colon tissue, DSS-induced colitis. It is filed as in vivo, C57BL/6 mice. To be noted: compared with the DSS treatment group. The procedure:
as §3, §4

For the next assay, the system named is iNOS. The assay can be described thus: Western blot of iNOS protein in LPS-stimulated RAW-Blue cells. Type of assay: cell-based, murine. To be noted: LPS 1 μg/mL, 5, 10, 20 μg/mL, 20 h. The procedure: as §1, §2
Assay [1] has as its system nitric oxide (NO) production in LPS-stimulated RAW-Blue cells. Put plainly: Nitric oxide production determination (Griess reagent). It is filed as cell-based, murine. To be noted: Mus musculus, LPS 1 μg/mL 20 hours. The procedure: After macrophages are treated with 1 μg/mL of LPS in absence or presence various concentrations of Pd-Ib (5, 10, 20 μg/mL) for 20 hours, the mRNA levels of iNOS (A), TNF-α (B) and IL-1β (C) are determined by real time PCR, while the production of NO (D) is determined by Griess reagent. Data are derived from three independent experiments and presented as mean±SEM, “con” stands for the vehicle control group. ^#Compared with control group. *P<0.05, **P<0.01 and ***P<0.001 are compared with LPS-alone group.
Nitric oxide (NO) production is indirectly assessed by measuring the nitrite levels in the cultured medium determined by a colorimetric method based on the Griess reagent and sodium nitrite as a standard substance. The cells are pretreated with various concentrations of Pd-Ib (5-20 μg/mL). Two hours later, cells are incubated for another 20 hours in the presence of LPS (1 μg/mL) at 37° C. Then, 100 μL of each supernatant is mixed with the equal volume of Griess reagent. The samples are incubated at room temperature for 15 min. The optical densities are measured at 540 nm with a micro-plate reader and nitrite concentration is determined using a standard curve generated with known concentrations of sodium nitrite.

Values after ≈ are worked out from the molar mass of the structure shown.

One may read the IC50 as the concentration at which inhibition is half-maximal. For orientation: inhibition means the percentage by which the read-out fell short of the control. A high value points to a strong effect. Regarding `C/C=C(\C)C(=O)OC1C(=O)c2c(ccc3ccc(=O)oc23)OC1(C)C` (single isomer, unassigned; (+)) [Pd-Ib, (+)-3′-Angeloyloxy-4′-keto-3′,4′-dihydroseselin], the COX-2 protein level result with COX-2 is “strongly down-regulates”. For the same compound, the “production of IL-6 in colon tissue” value in the assay on IL-6 is listed as “greatly reduces the production”. Besides, the IκB-α degradation entry in the assay on IκB-α was “inhibits IκB-α degradation in a dose-dependent manner”. In addition, in the assay on NF-κB, the IC50 turned out to be 22.5 µg/mL (≈ 65.8 µM). Further, the “production of TNF-α in colon tissue” value in the assay on TNF-α was “greatly reduces the production”. Also, the iNOS protein level entry in the assay with iNOS is recorded as “strongly down-regulates”. The compound also registered an inhibition at 5 µg/mL in assay [1] (5 μg/mL) of 17.6 ± 2.96%. The compound further came in with an inhibition at 10 µg/mL in assay [1] (10 μg/mL) of 29.8 ± 1.34%. Also, in assay [1] (20 μg/mL), the inhibition at 20 µg/mL came to 55.5 ± 1.15%.
